The results in this text go back to patent US10626081B2, “Farnesoid X receptor agonists and uses thereof” (Metacrine, Inc., priority 2015, dated 2020).

Broadly, the pEC50 is the EC50 on a negative log10 scale, so that one unit is a factor of ten. Low values mean a high EC50, high ones a low EC50.

pEC50: −log10 of the molar value.

In this test the target is T1, FXR (Homo sapiens, UniProt Q96RI1).
T1 construct: expressed in transfected cells; host or cells: CV-1 cells
T1 sequence (Q96RI1 1-486): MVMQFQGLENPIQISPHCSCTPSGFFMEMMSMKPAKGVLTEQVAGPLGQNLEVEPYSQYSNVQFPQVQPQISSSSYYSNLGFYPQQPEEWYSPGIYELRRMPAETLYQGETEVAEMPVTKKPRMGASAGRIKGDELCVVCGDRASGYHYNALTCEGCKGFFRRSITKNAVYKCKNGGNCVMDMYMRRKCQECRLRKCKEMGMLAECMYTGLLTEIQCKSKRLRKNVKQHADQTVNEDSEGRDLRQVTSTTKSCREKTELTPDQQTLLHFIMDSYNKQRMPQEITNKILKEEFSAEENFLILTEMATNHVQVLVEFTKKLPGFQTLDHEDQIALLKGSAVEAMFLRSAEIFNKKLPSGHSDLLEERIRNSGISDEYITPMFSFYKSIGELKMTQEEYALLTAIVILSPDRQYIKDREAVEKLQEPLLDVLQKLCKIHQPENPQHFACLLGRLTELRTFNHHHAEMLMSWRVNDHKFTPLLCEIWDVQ
T1 sequence (P19793 1-462 partner): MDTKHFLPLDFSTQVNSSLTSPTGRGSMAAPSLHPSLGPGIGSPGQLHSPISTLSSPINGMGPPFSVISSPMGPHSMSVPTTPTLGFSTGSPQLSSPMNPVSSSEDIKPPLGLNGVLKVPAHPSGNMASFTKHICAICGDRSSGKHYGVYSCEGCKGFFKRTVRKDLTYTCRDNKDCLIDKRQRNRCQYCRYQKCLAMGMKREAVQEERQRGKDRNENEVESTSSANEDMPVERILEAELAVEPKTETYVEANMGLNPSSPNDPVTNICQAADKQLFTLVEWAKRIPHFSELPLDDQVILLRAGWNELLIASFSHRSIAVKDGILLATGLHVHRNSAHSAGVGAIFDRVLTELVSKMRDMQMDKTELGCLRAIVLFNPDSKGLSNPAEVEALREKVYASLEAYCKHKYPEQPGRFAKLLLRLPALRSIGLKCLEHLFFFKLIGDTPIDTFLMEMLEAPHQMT
Nature of the test: In Vitro FXR Assay (TK): TK-ECRE-luc reporter in transfected CV-1 cells. The test is classed as cell-based. The settings on record: CV-1 cells transfected with hFXR, hRXR, 18 h incubation, luminescence. The method, then: Example B-2: In Vitro FXR Assay (TK)
CV-1 cells were seeded at a density of 2,000,000 cells in a T175 flask with DMEM+10% charcoal double-stripped FBS and incubated at 37° C. in 5% CO2 for 18 h (O/N).
After 18 h of incubation, the medium in the T175 flask was changed with fresh DMEM+10% charcoal super-stripped serum. In a polypropylene tube, 2500 μL OptiMEM (Life Technologies, Cat #31985-062) was combined with expression plasmids for hFXR, hRXR, TK-ECRE-luc and pCMX-YFP. The tube was then briefly vortexed and incubated at room temperature for 5 minutes. Transfection reagent (X-tremeGENE HP from Roche, Cat #06 366 236 001) was added to the OptiMEM/plasmid mixture vortexed and incubated at room temperature for 20 minutes. Following incubation, the transfection reagent/DNA mixture complex was added to cells in the T175 flask and the cells were incubated at 37° C. in 5% CO2 for 18 h (O/N).
Compounds were serially diluted in DMSO and added to transfected CV-1 cells. The cells were then incubated for 18 hrs. The next day cells were lysed and examined for luminescence.
With `COC(=O)/C=C/c1cccc(N(Cc2ccc(-c3cccc(S(C)(=O)=O)c3)cc2)C(=O)C2CCCCC2)c1` [62.8, (E)-Methyl 3-(3-(N-((3′-(methylsulfonyl)-[1,1′-biphenyl]-4-yl)methyl)cyclohexanecarboxamido)phenyl) acrylate], the pEC50 is less than 5.00.
To `COC(=O)/C=C/c1cccc(N(Cc2ccc(-c3ccc(N(C)C)cc3)cc2)C(=O)[C@@H]2CCC[C@H](O)C2)c1` (relative stereo) [13.27, cis-(E)-Methyl 3-(3-(N-((4′-(dimethylamino)-[1,1′-biphenyl]-4-yl)methyl)-3-hydroxycyclohexanecarboxamido)phenyl)acrylate] belongs no less than 6.00; to `COC(=O)/C=C/c1cccc(N(Cc2ccc(-c3ccc(N(C)C)cc3)cc2)C(=O)C2CCC(=O)CC2)c1` [compound 17, (E)-Methyl 3-(3-(N-((4′-(dimethylamino)-[1,1′-biphenyl]-4-yl)methyl)-4-oxocyclohexanecarboxamido)phenyl)acrylate], no less than 6.00.
To `COC(=O)/C=C/c1cccc(N(Cc2ccc(-c3ccc(N(C)C)cc3)cc2)C(=O)[C@H]2CC[C@H](NC(=O)OC)CC2)c1` [compound 98, (E)-Methyl 3-(3-(trans-N-((4′-(dimethylamino)-[1,1′-biphenyl]-4-yl)methyl)-4-((methoxycarbonyl)amino)cyclo-hexanecarboxamido)phenyl)acrylate] belongs no less than 6.00.
In turn, `COC(=O)/C=C/c1cccc(N(Cc2ccc(-c3ccc(N(C)C)cc3)cc2)C(=O)[C@H]2CC[C@H](S(C)(=O)=O)CC2)c1` [13.15, trans-(E)-methyl 3-(3-(N-((4′-(dimethylamino)-[1,1′-biphenyl]-4-yl)methyl)-4-(methylsulfonyl)cyclohexanecarboxamido)phenyl)acrylate] showed a pEC50 of 5.00 to 6.00.
The result for `COC(=O)/C=C/c1cccc(N(Cc2ccc(-c3ccc(OC)c(C)c3)cc2)C(=O)C2CCNCC2)c1` [62.15, (E)-Methyl 3-(3-(N-((4′-methoxy-3′-methyl-[1,1′-biphenyl]-4-yl)methyl)piperidine-4-carboxamido)phenyl)acrylate] reads less than 5.00.
The result for `COC(=O)/C=C/c1cccc(N(Cc2ccc(-c3ccc4ncsc4c3)cc2)C(=O)C2CCCCC2)c1` [75.9, (E)-Methyl 3-(3-(N-(4-(benzo[d]thiazol-6-yl)benzyl)cyclohexanecarboxamido)phenyl) acrylate] reads 5.00 to 6.00; that for `COC(=O)/C=C/c1cccc(N(Cc2ccc(-c3ccc(N(C)C)cc3)cc2)C(=O)C2CCNC(=O)C2)c1` (stereo not drawn) [13.18, (E)-Methyl 3-(3-(N-((4′-(dimethylamino)-[1,1′-biphenyl]-4-yl)methyl)-2-oxopiperidine-4-carboxamido)phenyl)acrylate], 5.00 to 6.00; that for `COC(=O)/C=C/c1cc(F)cc(N(Cc2ccc(-c3ccc(N(C)C)cc3)cc2)C(=O)C2CC3CCC2C3)c1` (stereo not drawn) [13.5, (E)-Methyl 3-(3-(N-((4′-(dimethylamino)-[1,1′-biphenyl]-4-yl)methyl)bicyclo[2.2.1]heptane-2-carboxamido)-5-fluorophenyl)acrylate], no less than 6.00.
The result for `COC(=O)/C=C/c1cccc(N(Cc2ccc(-c3ccc(S(C)(=O)=O)cc3F)cc2)C(=O)C2CCCCC2)c1` [75.8, (E)-Methyl 3-(3-(N-((2′-fluoro-4′-(methylsulfonyl)-[1,1′-biphenyl]-4-yl)methyl)cyclohexanecarboxamido)phenyl) acrylate] reads 5.00 to 6.00.
`COC(=O)/C=C/c1cccc(N(Cc2ccc(-c3ccc4oncc4c3)cc2)C(=O)C2CCCCC2)c1` [75.15, (E)-Methyl 3-(3-(N-(4-(benzo[d]isoxazol-5-yl)benzyl)cyclohexanecarboxamido)phenyl) acrylate] showed a pEC50 of less than 5.00.
To `COC(=O)/C=C/c1cc(OC)cc(N(Cc2ccc(-c3ccc(N(C)C)cc3)cc2)C(=O)C2CCCCC2)c1` [86.8, (E)-Methyl 3-(3-(N-((4′-(dimethylamino)-[1,1′-biphenyl]-4-yl)methyl)cyclohexanecarboxamido)-5-methoxyphenyl)acrylate] belongs 5.00 to 6.00.
For the compound `COC(=O)/C=C/c1cc(N(Cc2ccc(-c3ccc(N(C)C)cc3)cc2)C(=O)C2CCCCC2)cc(C(F)(F)F)c1` [86.11, (E)-Methyl 3-(3-(N-((4′-(dimethylamino)-[1,1′-biphenyl]-4-yl)methyl)cyclohexanecarboxamido)-5-(trifluoromethyl)phenyl)acrylate], the pEC50 was 5.00 to 6.00.
`COC(=O)/C=C/c1cccc(N(Cc2ccc(-c3ccc(N(C)C)cc3)c(C#N)c2)C(=O)C2CCCCC2)c1` [62.11, (E)-Methyl 3-(3-(N-((2-cyano-4′-(dimethylamino)-[1,1′-biphenyl]-4-yl)methyl)cyclohexanecarboxamido)phenyl) acrylate]: the pEC50 was no less than 6.00.
For the compound `COC(=O)/C=C/c1cccc(N(Cc2ccc(-c3ccc(CO)cc3)cc2)C(=O)C2CCCCC2)c1` [62.7, (E)-Methyl 3-(3-(N-((4′-(hydroxymethyl)-[1,1′-biphenyl]-4-yl)methyl)cyclohexanecarboxamido)phenyl) acrylate], the pEC50 was less than 5.00.
The compound `COC(=O)/C=C/c1cccc(N(Cc2ccc(-c3ccc(N(C)C)cc3)cc2)C(=O)C2CCSCC2)c1` [13.9, (E)-Methyl 3-(3-(N-((4′-(dimethylamino)-[1,1′-biphenyl]-4-yl)methyl)tetrahydro-2H-thiopyran-4-carboxamido)phenyl)acrylate] showed a pEC50 of no less than 6.00.
The result for `COC(=O)/C=C/c1cccc(N(Cc2ccc(-c3ccc(N(C)C)cc3)cc2)C(=O)C2(C)CCOCC2)c1` [13.6, (E)-Methyl 3-(3-(N-((4′-(dimethylamino)-[1,1′-biphenyl]-4-yl)methyl)-4-methyltetrahydro-2H-pyran-4-carboxamido)phenyl)acrylate] reads 5.00 to 6.00.
The result for `COC(=O)/C=C/c1cccc(N(Cc2ccc(-c3ccc(N(C)C)cc3)cc2)C(=O)[C@H]2CC[C@@H](S(C)(=O)=O)CC2)c1` [13.14, cis-(E)-Methyl 3-(3-(N-((4′-(dimethylamino)-[1,1′-biphenyl]-4-yl)methyl)-4-(methylsulfonyl)cyclohexanecarboxamido)phenyl)acrylate] reads 5.00 to 6.00.
As for `COC(=O)/C=C/c1cccc(N(Cc2ccc(-c3cnc(N(C)C)nc3)cc2)C(=O)C2CCCCC2)c1` [75.3, (E)-Methyl 3-(3-(N-(4-(2-(dimethylamino)pyrimidin-5-yl)benzyl)cyclohexanecarboxamido)phenyl) acrylate], the pEC50 was no less than 6.00.
The result for `COC(=O)/C=C/c1cccc(N(Cc2ccc(-c3ccc(S(C)(=O)=O)cc3)cc2)C(=O)C2CCCCC2)c1` [62.4, (E)-Methyl 3-(3-(N-((4′-(methylsulfonyl)-[1,1′-biphenyl]-4-yl)methyl)cyclohexanecarboxamido)phenyl) acrylate] reads 5.00 to 6.00; that for `COC(=O)/C=C/c1cccc(N(Cc2ccc(-c3ccc4ocnc4c3)cc2)C(=O)C2CCCCC2)c1` [75.11, (E)-Methyl 3-(3-(N-(4-(benzo[d]oxazol-5-yl)benzyl)cyclohexanecarboxamido)phenyl) acrylate], 5.00 to 6.00; that for `COC(=O)/C=C/c1cccc(N(Cc2ccc(-c3cccc(C(=O)OC)c3)cc2)C(=O)C2CCCCC2)c1` [62.2, (E)-Methyl 4′-((N-(3-(3-methoxy-3-oxoprop-1-en-1-yl)phenyl)cyclohexanecarboxamido)methyl)-[1,1′-biphenyl]-3-carboxylate], 5.00 to 6.00.
The result for `COC(=O)/C=C/c1cccc(N(Cc2ccc(-c3ccc(N(C)S(C)(=O)=O)cc3)cc2)C(=O)C2CCCCC2)c1` [75.6, (E)-Methyl 3-(3-(N-((4′-(N-methylmethylsulfonamido)-[1,1′-biphenyl]-4-yl)methyl)cyclohexanecarboxamido)phenyl) acrylate] reads 5.00 to 6.00.
To `CC(C)COC(=O)/C=C/c1cccc(N(Cc2ccc(-c3ccc(N(C)C)cc3)cc2)C(=O)C2CCCCC2)c1` [86.2, (E)-Isobutyl 3-(3-(N-((4′-(dimethylamino)-[1,1′-biphenyl]-4-yl)methyl)cyclohexanecarboxamido)phenyl) acrylate] belongs less than 5.00.
